Biological target: T1, P-selectin binding to P-selectin glycoprotein ligand-1 (PSGL-1) (Homo sapiens, UniProt P16109)
T1 construct: truncated form of human P-selectin comprised of the lectin and EGF domains (P-LE)
T1 sequence (P16109 42-198): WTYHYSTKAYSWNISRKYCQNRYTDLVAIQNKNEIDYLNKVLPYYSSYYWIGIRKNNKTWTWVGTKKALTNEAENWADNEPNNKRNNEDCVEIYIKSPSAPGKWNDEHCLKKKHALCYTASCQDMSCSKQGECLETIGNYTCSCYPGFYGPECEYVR
Assay: Biacore assay: inhibition of P-selectin (P-LE) binding to PSGL-1 (SGP-3)
Conditions: at 1 mM
Experimental: Compounds of the invention can be assayed for selectin inhibitory activity using any of the procedures known in the art. One convenient procedure is the determination of IC50 values for inhibition of P-selectin binding to P-selectin glycoprotein ligand-1 (PSGL-1) using Biacore.
The Biacore 3000 is an instrument that uses surface plasmon resonance to detect binding of a solution phase analyte to an immobilized ligand on a sensor chip surface. The analyte sample is injected under flow using a microfluidic system. Binding of analyte to ligand causes a change in the angle of refracted light at the surface of the sensor chip, measured by the Biacore instrument in resonance units (RUs).
SGP-3 is a purified sulfoglycopeptide form of human PSGL-1 that contains the P-selectin binding determinants (See Somers et al., 2000, Cell 103, 467-479). SGP-3 was biotinylated via amine chemistry at a unique C-terminal lysine residue and immobilized on streptavidin-coated SA sensor chip. […]
The Biacore assay measures the signal in RU produced by binding of P-LE to SGP-3 in the presence and absence of inhibitors. Percent inhibition of binding is calculated by dividing the inhibited signal by the uninhibited signal subtracting this value from one then multiplying by one hundred. […] The data from this titration are plotted, RU values vs. concentration, and the IC50 is determined by extrapolation from the plot. […]

CC1(C)[C@@H](O[C@H]2O[C@H](C(=O)O)[C@@H](O)[C@H](O)[C@H]2O[C@@H]2O[C@H](C(=O)O)[C@@H](O)[C@H](O)[C@H]2O)CC[C@]2(C)[C@H]3C(=O)C=C4[C@@H]5C[C@@](C)(C(=O)O)CC[C@]5(C)CC[C@@]4(C)[C@]3(C)CC[C@@H]12 [Glycerrhizzin]
Percent inhibition of binding (positive control): 50%
